{
  "source": "patent US12570984B2",
  "about": "“DNA aptamer specifically binding to glutathione and use thereof” (Nexmos Co., LTD, priority 2020, dated 2026)",
  "key": {"tyrosinase [1]": {"system": "tyrosinase", "conditions": "final 20 μM GSH; 37° C. 10 minutes; absorbance 490 nm; N=5", "protocol": "The final concentrations of each component in this experiment were 20 μM GSH, 0.2 μM Apt G, and 0.01% arbutin.\n300 μM GSH and 3 μM of the prepared aptamer (molar concentration of 100:1) were dissolved in tertiary distilled water and reacted at room temperature for 30 minutes.\nIn a 96 well plate, 200 μL of 0.1 M potassium phosphate buffer (pH6.5), 20 μL of sample, 20 μL of 2 KU/mL tyrosinase, and 60 μL of 1.0 mM tyrosine were sequentially added and reacted at 37° C. for 10 minutes.\nAfter the reaction, absorbance was measured at 490 nm using a plate reader."}, "tyrosinase [2]": {"target": "T1, tyrosinase (Homo sapiens, UniProt P14679)", "T1 sequence (P14679 19-529)": "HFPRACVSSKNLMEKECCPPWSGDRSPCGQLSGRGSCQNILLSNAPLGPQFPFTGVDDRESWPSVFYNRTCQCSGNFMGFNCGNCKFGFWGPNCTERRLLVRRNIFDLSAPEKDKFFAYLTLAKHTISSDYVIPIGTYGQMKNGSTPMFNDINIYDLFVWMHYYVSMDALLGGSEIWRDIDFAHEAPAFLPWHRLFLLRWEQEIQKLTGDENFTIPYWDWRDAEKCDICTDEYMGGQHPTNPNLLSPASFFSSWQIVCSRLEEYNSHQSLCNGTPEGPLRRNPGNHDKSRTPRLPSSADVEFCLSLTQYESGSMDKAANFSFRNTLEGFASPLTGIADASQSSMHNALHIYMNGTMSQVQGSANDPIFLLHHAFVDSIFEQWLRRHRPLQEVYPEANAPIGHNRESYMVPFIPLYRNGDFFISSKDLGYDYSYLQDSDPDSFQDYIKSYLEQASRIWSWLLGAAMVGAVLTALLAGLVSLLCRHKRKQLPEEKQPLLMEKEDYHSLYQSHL", "assay": "Whitening efficacy test, in vitro cell-based tyrosinase activity (MNT-1 cells)", "conditions": "72 hours, final 100 μM GSH, 1 μM Apt G, 0.01% arbutin, L-DOPA, absorbance 475 nm", "protocol": "The final concentration of each component in this experiment was 100 μM GSH, 1 μM Apt G, 0.01% arbutin,\n100 μM GSH and 1 μM of the prepared aptamer (molar concentration of 100:1) were added to the media and reacted at room temperature for 30 minutes.\nMNT-1 cells were seeded on a 6-well plate and incubated for 24 hours at 37° C., 5% CO2 incubator.\nAfter treating each of the prepared samples, the samples were again incubated at 37° C. and 5% CO2 incubator for 72 hours.\nAfter incubation, ice-cold lysis buffer (RIPA buf.+ protease inhibitor) was used to remove the cells from the plate, and the removed cells were transferred to an EP-tube and centrifuged to remove only the supernatant.\nLysate, L-DOPA, potassium phosphate buffer (pH6.5) was added to a 96 well plate and mixed (each test group used the same amount of protein through protein quantification).\nAfter incubation for 1 hour at 37° C., 5% CO2 incubator, absorbance was measured at 475 nm using a plate reader."}, "[3]": {"assay": "Antioxidant efficacy test, DTNB assay (sulfhydryl group determination) of GSH stored at 37° C.", "conditions": "day 16, storage at 37° C.; final 125 μM GSH, 1.25 μM aptamin G; n=5", "quoted_text": "In this experiment, the final concentration of each component was 125 μM GSH and 1.25 μM aptamin G.\nThe prepared aptamer (100:1) of the prepared aptamer (100:1) of 250 μM GSH and 2.5 μM was dissolved in the 3th distilled water for 30 minutes at room temperature.\nThe above GSH-Aptamin G complex was stored for a certain period of time under severe conditions (37° C.), and samples were obtained every 4 days and measured for 16 days.\nJust before the sample measurement, 10 mm DTNB (4 mg/ml, buffer: 0.1 M potassium Phosphate buffer, pH 8.0) was prepared to mix the sample (50 μL) of DTNB solution and shaking incubation.\nAfter the reaction, the UV Absorbance value was measured at 412 nm and REF wavelength 605 nm using the Plate Reader."}},
  "data": [
    {"smiles": "N[C@@H](CCC(=O)N[C@@H](CS)C(=O)NCC(=O)O)C(=O)O", "note": "[GSH, Glutathione]", "values": [
      {"measurement": "inhibition of the activity of tyrosinase", "setting": "tyrosinase [1]", "value": "about 75%"},
      {"measurement": "inhibition of tyrosinase activity (cell test)", "setting": "tyrosinase [2]", "value": "tendency not to inhibit the activity of tyrosinase"},
      {"measurement": "amount of GSH remaining unoxidized", "setting": "[3]", "value": "about 60%"}
    ]},
    {"smiles": "OC[C@H]1O[C@@H](Oc2ccc(O)cc2)[C@H](O)[C@@H](O)[C@@H]1O", "note": "[Arbutin]", "values": [
      {"measurement": "inhibition of tyrosinase activity (cell test)", "setting": "tyrosinase [2]", "value": "about 25%"}
    ]}
  ]
}
